Columns and labels:
[1] = target: T1, BSA (Bos taurus, UniProt P02769); assay: Cannabis extract combined with albumin solution, cannabinoids adsorbed to BSA (Example 2a); type: binding, bovine; details: albumin solution 10 mg/ml (BSA) with 20% ethanol, 2 hours at room temperature
Description: (§1) Cannabis extract was prepared as follows: In short, cannabis plant matter is dried, ground and homogenized to form ground cannabis. The ground cannabis is extracted with methanol/chloroform (volume/volume ratio of 9:1). Sonication and filtration is then performed. Identity of cannabinoids is determined by HPLC by evaporation, dissolution in an appropriate solvent.
(§2) Drying of the cannabis plant matter occurs under high vacuum at about 37±2° C. for about 24 hours and then ground to form a fine powder. 200 mg of ground powder is combined with 10 ml of methanol/chloroform, and sonicated in an ice bath for 30 minutes at maximum power. The supernatant is then filtered through a 0.2 micron filter.
(§3) A sample of the cannabis extract was analyzed for content of cannabinoids. The cannabis extract was then combined with albumin solution having 20% ethanol at 10 mg/ml (BSA) and incubated for 2 hours at room temperature.

[2] = Cannabis smoke/vapor passed through pure ethanol, cannabinoid profile (Example 1d); type: physicochemical; details: for relative concentration of cannabinoids (relative to total cannabinoid content), Vapor passed through ethanol: vapor at 210° C.
Description: (§4) To show which cannabinoid compounds are solubilized in processes using BSA versus organic solvents, cannabis from two different batches was smoked and or vaporized. Vapor was formed using a “volcano” vaporizer at a temperature of 210° C. The smoke/vapor was passed through either a BSA/water/ethanol solution described in example 1b, comprising 33% by volume ethanol or through a pure ethanol (99% ethanol) solution. Solutions were stirred using a magnetic stirrer and were incubated for 48 hours, during which time, most of the ethanol evaporated. One of the batches of cannabis was high in THC, and the other batch of cannabis was high in both THC and CBD.

[3] = target: T2, bovine serum albumin (BSA) (Bos taurus, UniProt P02769); assay: Cannabis smoke bubbled through aqueous BSA solution, cannabinoids determined by HPLC (Example 1a); type: binding; details: BSA in Hartmann's solution; FIG. 2A
T2 construct: purchased Millipore, USA
T2 sequence (P02769 25-607): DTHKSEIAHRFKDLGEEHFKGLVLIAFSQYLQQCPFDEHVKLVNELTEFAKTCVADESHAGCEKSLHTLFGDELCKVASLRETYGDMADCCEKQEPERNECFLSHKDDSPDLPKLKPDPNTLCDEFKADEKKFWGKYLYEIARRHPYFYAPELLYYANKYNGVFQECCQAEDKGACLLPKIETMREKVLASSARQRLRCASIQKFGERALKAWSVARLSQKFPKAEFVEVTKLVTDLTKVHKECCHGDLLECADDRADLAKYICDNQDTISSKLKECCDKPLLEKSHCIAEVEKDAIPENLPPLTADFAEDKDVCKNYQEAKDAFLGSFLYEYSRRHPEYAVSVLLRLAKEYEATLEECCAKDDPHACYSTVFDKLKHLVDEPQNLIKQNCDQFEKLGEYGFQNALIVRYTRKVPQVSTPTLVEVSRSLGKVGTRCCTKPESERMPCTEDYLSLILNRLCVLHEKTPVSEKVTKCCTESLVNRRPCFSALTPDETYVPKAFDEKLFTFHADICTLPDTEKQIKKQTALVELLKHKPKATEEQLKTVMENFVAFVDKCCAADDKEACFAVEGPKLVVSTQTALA
Description: Protein-bound cannabinoid was formed according to the following method. An aqueous albumin solution was prepared by adding 20 (mg)) of bovine serum albumin (BSA, from Millipore, USA) to 10 milliliters (ml) ml Hartmann's solution (B. Braun Melsungen AG, Germany). BSA was completely dissolved using a shaker (Heidolph POLYMAX 1040) at 50 revolutions per minute.
A cannabis-filled cigarette was formed using a cigarette paper containing 0.8 gr ground cannabis (provided by “Seach” Israel), from flowers and budding leaves. A Pasteur pipette was cut longitudinally at its wide end, and the cigarette was lodged in to the cut end. The narrow end of the pipette was attached to a syringe. The cigarette was lit in a fume hood, and cigarette smoke was collected in the syringe by pulling the syringe plunger. The smoke was then slowly released into the BSA solution by depressing the plunger. Approximately 350 ml of smoke-containing air was gently bubbled through the BSA solution.
As a control, a solution of 10 ml of Hartmann's solution was prepared without the addition of BSA and a similar procedure of cannabis smoke formation and bubbling was performed.
Samples having a volume of 3 ml of the BSA solution and the control solution were each inserted in to HPLC glass vials and the open vials were inserted into a vacuum oven for 24 hours at 37° Celsius.
The solid phase after the evaporation was crushed in to a fine powder using mortar and pestle. The powder was extracted using Methanol chloroform 9:1 extract solution, sonicated for 30 minutes, and was then filtered and added in to an HPLC testing tube.
HPLC was performed using an HP1050 AGILENT, DAD detector, XBridge C18 3.5 μm 4.6×150 mm column, and according to the following parameters: […]

[4] = target: T1, BSA; assay: Cannabis smoke/vapor passed through BSA/water/ethanol solution, cannabinoid profile (Example 1d); type: binding, bovine; details: 33% ethanol, 48 hours incubation, washed
Description: as §4
The BSA/water/ethanol solution was washed after smoke or vapor was combined with it, and the amount of cannabinoids present was analyzed. The results of the comparison of relative concentration of cannabinoids (relative to total cannabinoid content) as expressed in percent (weight/weight), for a strain of cannabis high in THC are shown in the table below.

[5] = target: albumin (BSA) (Bos taurus, UniProt P02769); assay: Ethanolic cannabinoid solution mixed with aqueous albumin, protein-bound cannabinoid quantified (Example 2b); type: binding, bovine; parameters: protein-bound cannabinoid quantified, Vapor: unit not given beside the values; details: 100 microliters ethanolic solution + 500 microliters 5 mg/ml BSA, 30° C., 12 hours, non-adsorbed cannabinoids separated
albumin (BSA), sequence (P02769 25-607): as above
Description: 100 microliters of ethanolic cannabinoid solution from cannabis vapor and cannabis smoke were each mixed with 500 microliters of aqueous albumin solution that had been prepared at a concentration of 5 mg albumin (BSA)/ml. The aqueous albumin solution combined with the ethanolic cannabinoid solution was incubated at 30° C. for 12 hours in open tubes. After 12 hours, the tubes were mixed and centrifuged, and non-adsorbed cannabinoids were separated from the solution. Concentrated protein-bound cannabinoid was dried and quantified as described below.

[6] = Cannabinoid content of cannabis extract (Example 2a); type: physicochemical; details: methanol/chloroform 9:1 cannabis extract
Description: as §1, §2, §3

[7] = system: bovine γ-globulin; assay: Cannabis vapor streamed through protein solution, cannabinoids adsorbed (Example 1f); type: binding; details: vapor of cannabis high in CBD; 1 mg/ml protein, ethanol:water 1:2, 30° C., 24 hours
Description: (§5) The protein solutions were formed using ethanol and water in a 1:2 ratio. The solutions were incubated at 30° C. for 24 hours.

[8] = target: T3, rice recombinant human serum albumin (HSA) (Homo sapiens, UniProt P02768); assay: as above; type: binding; details: vapor of cannabis high in CBD; 1 mg/ml protein, ethanol:water 1:2, 30° C., 24 hours
T3 construct: host or cells: rice (recombinant expression host)
T3 sequence (P02768 25-609): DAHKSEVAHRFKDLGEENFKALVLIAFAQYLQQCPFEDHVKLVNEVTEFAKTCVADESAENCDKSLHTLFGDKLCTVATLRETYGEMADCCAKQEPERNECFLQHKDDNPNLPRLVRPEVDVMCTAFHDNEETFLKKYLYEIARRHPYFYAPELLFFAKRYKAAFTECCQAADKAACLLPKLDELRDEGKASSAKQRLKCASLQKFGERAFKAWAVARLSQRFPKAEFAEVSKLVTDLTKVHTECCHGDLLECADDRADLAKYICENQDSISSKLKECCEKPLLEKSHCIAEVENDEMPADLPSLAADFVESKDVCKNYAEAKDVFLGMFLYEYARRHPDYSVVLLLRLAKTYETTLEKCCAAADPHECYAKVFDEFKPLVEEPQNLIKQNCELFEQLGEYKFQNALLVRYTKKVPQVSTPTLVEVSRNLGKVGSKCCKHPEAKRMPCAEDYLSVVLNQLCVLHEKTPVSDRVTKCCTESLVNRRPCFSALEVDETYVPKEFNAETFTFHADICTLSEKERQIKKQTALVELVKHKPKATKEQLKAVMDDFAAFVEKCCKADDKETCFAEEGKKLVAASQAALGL
Description: as §5

[9] = target: T4, ovalbumin (hen) (Gallus gallus, UniProt P01012); assay: as above; type: binding; details: vapor of cannabis high in CBD; 1 mg/ml protein, ethanol:water 1:2, 30° C., 24 hours
T4 sequence (P01012 1-386): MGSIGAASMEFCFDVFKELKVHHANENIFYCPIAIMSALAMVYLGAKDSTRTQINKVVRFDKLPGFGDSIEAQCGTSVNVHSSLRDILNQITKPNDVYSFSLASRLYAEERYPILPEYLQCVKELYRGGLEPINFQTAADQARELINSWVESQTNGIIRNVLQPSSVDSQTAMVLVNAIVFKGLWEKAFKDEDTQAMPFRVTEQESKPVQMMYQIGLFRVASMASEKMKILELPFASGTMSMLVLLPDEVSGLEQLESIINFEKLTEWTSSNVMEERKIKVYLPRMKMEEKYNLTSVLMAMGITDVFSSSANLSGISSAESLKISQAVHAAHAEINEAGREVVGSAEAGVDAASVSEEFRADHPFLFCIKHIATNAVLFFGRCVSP
Description: as §5

[10] = 3 g high THC strain; 200 ml ethanol concentrated to about 3 ml
[11] = strain of cannabis high in CBD and THC

T1 sequence (P02769 25-607): as the sequence (P02769 25-607) above

| Compound | percentage of each cannabinoid relative to total cannabinoids adsorbed to protein, Adsorbed to BSA after extract combined with BSA solution [1] | relative concentration of cannabinoids (relative to total cannabinoid content), Smoke passed through ethanol [2, 11] | relative concentration of cannabinoids (relative to total cannabinoid content), Vapor passed through ethanol [2, 11] | relative concentration of cannabinoids (relative to total cannabinoid content), Smoke passed through ethanol ([2]; strain of cannabis high in THC) | relative concentration of cannabinoids (relative to total cannabinoid content), Vapor passed through ethanol ([2]; strain of cannabis high in THC) | active cannabinoids found by HPLC in BSA aqueous solution after cannabis smoke was introduced [3] | relative concentration of cannabinoids (relative to total cannabinoid content), Smoke passed through BSA/water/ethanol [4, 11] | relative concentration of cannabinoids (relative to total cannabinoid content), Vapor passed through BSA/water/ethanol [4, 11] | relative concentration of cannabinoids (relative to total cannabinoid content), Smoke passed through BSA/water/ethanol ([4]; strain of cannabis high in THC) | protein-bound cannabinoid quantified, Smoke [5] | protein-bound cannabinoid quantified, Vapor [5] | percentage of each cannabinoid relative to total cannabinoids, Extract [6] | percentage of each cannabinoid relative to total cannabinoids adsorbed to protein, Bovine γ-globulin [7] | percentage of each cannabinoid relative to total cannabinoids adsorbed to protein, Rice recombinant HSA [8] | percentage of each cannabinoid relative to total cannabinoids adsorbed to protein, Ovalbumin [9] | amount of cannabinoids dissolved in ethanol, Smoke [10] | amount of cannabinoids dissolved in ethanol, Vapor [10] |
| --- | --- | --- | --- | --- | --- | --- | --- | --- | --- | --- | --- | --- | --- | --- | --- | --- | --- |
| CCCCCc1cc(O)c2c(c1)OC(C)(C)c1ccc(C)cc1-2 [CBN, cannabinol] | 2 percentage | 1.6 percent (weight/weight) | 0.0 percent (weight/weight) | 1.7 percent (weight/weight) | 1.6 percent (weight/weight) | dissolved in the solution | 0.0 percent (weight/weight) | 0.0 percent (weight/weight) | 0.0 percent (weight/weight) | 6.5 | 4.855 | 2 percentage | 0 percentage | 0 percentage | 0 percentage | 276.856 micrograms/ml | 135.5254 micrograms/ml |
| CCCCCc1cc2c(c(O)c1C(=O)O)[C@@H]1C=C(C)CC[C@H]1C(C)(C)O2 [THCA, tetrahydrocannabinoic acid] | 29 percentage | 0.7 percent (weight/weight) | 0.3 percent (weight/weight) | 0.9 percent (weight/weight) | 1.1 percent (weight/weight) | dissolved in the solution | 5.3 percent (weight/weight) | 0.0 percent (weight/weight) | 9.3 percent (weight/weight) | 2.16 | 4.26 | 22 percentage | 100 percentage | 0 percentage | 0 percentage | 83.765 micrograms/ml | 72.8432 micrograms/ml |
| CCCCCc1cc(O)c2c(c1)OC(C)(CCC=C(C)C)C=C2 (centres unmarked) [CBC, cannabichromene] | 3 percentage | 3.1 percent (weight/weight) | 3.8 percent (weight/weight) | 1.3 percent (weight/weight) | 0.0 percent (weight/weight) | dissolved in the solution | 0.0 percent (weight/weight) |  | 0.0 percent (weight/weight) | 2.13 | 1.845 | 1 percentage | 0 percentage | 0 percentage |  | 90.873 micrograms/ml | 54.7468 micrograms/ml |
| C=C(C)[C@@H]1CCC(C)=C[C@H]1c1c(O)cc(CCCCC)c(C(=O)O)c1O [CBDA, cannabidiolic acid] | 0 percentage | 2.3 percent (weight/weight) | 1.6 percent (weight/weight) | 0.9 percent (weight/weight) | 0.4 percent (weight/weight) |  | 39.8 percent (weight/weight) | 23.6 percent (weight/weight) | 0.0 percent (weight/weight) | 0 | 0 | 1 percentage | 0 percentage | 46 percentage | 2.4 percentage | 0 micrograms/ml | 3.1218 micrograms/ml |

— US12161723B2, “Water-based cannabinoid and opioid compositions” (DAY THREE LABS MAN[…]., priority 2014, dated 2024)
